Measured values taken from patent publication US6683103B2, “Sulfonamides for treatment of endothelin-mediated disorders” (Texas Biotechnology Corporation, priority 1997, dated 2004).
Like-named read-outs stand apart in the source and are kept apart here.

Tests used:
human ETB receptor = molecular target: T1, human ETB receptor (Homo sapiens, UniProt P24530); assay: Binding Test #2: inhibition of 125I-ET-1 binding to ETB receptors (transfected COS7 cell membranes); conditions: read-out: ETB
T1 construct: expressed in transfected cells; host or cells: COS7 cells
T1 sequence (P24530 27-442): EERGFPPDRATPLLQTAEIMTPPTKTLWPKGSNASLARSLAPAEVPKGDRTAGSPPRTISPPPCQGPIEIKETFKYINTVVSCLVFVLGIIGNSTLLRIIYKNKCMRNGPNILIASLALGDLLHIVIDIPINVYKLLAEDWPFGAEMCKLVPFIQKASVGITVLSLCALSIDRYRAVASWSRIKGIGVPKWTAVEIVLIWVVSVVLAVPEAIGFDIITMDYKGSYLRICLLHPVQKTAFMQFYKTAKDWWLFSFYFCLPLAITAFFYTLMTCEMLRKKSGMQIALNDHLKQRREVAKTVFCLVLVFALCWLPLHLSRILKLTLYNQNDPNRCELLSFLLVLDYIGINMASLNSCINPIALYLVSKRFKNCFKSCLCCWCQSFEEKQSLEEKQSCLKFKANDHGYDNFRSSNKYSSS
From the text: (§1) Compounds that are potential endothelin antagonists are identified by testing their ability to compete with ^125I-labeled ET-1 for binding to human ETA receptors or ETB receptors present on isolated cell membranes. The effectiveness of the test compound as an antagonist or agonist of the biological tissue response of endothelin can also be assessed by measuring the effect on endothelin induced contraction of isolated rat thoracic aortic rings. The ability of the compounds to act as antagonists or agonists for ETB receptors can be assess by testing the ability of the compounds are to inhibit endothelin-1 induced prostacyclin release from cultured bovine aortic endothelial cells.
B. Endothelin Binding Inhibition—Binding Test #2: Inhibition of Binding to ETB Receptors
COS7 cells were transfected with DNA encoding the ETB receptor, The resulting cells, which express the human ETB receptor, were grown to confluence in T-150 flasks. Membrane was prepared as described above. The binding assay was performed as described above using the membrane preparation diluted with binding buffer to a concentration of 1 μg/50 μl.
Briefly, the COS7 cells, described above, that had been transfected with DNA encoding the ETB receptor and express the human ETB receptor on their surfaces were grown to confluence in T-1 75 flasks. Cells from multiple flasks were collected by scraping, pooled and centrifuged for 10 min at 190×g. The cells were resuspended in phosphate buffered saline (PBS) containing 10 mM EDTA using a Tenbroeck homogenizer. The suspension was centrifuged at 4° C. 57,800 X g for 15 min, the pellet was resuspended in 5 ml of buffer A (5mM HEPES buffer, pH 7.4 containing aprotinin (100 KIU/ml)) and then frozen and thawed once. Five ml of Buffer B (5 mM HEPES Buffer, pH 7.4 containing 10 mM MnCl2 and 0.001% deoxyribonuclease Type 1) was added, the suspension mixed by inversion and then incubated at 37° C. for 30 minutes. The mixture was centrifuged at 57,800×g as described above, the pellet washed twice with buffer A and then resuspended in buffer C (30 mM HEPES buffer, pH 7.4 containing aprotinin (100 KIU/ml) to give a final protein concentration of 2 mg/ml.
The binding assay was performed as described above using the membrane preparation diluted to give 1 μg/50 μl of binding buffer.

human ETA receptors = molecular target: T2, human ETA receptors (Homo sapiens, UniProt P25101); assay: Binding Test #1: inhibition of 125I-ET-1 binding to ETA receptors (TE 671 cell membranes); conditions: read-out: ETA
T2 construct: endogenous in cells; host or cells: TE 671 cells (ATCC HTB 139)
T2 sequence (P25101 21-427): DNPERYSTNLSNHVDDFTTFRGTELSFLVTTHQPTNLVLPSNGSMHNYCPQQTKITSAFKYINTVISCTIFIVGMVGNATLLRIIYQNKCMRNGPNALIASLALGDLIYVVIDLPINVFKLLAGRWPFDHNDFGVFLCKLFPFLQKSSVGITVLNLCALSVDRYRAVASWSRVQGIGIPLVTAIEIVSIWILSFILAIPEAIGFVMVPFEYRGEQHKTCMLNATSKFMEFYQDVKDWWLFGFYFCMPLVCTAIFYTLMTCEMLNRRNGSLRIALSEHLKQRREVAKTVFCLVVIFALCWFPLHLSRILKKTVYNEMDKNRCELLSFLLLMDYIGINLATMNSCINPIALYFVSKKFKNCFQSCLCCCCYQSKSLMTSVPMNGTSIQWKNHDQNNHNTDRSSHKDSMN
From the text: as §1
A. Endothelin Binding Inhibition—Binding Test #1: Inhibition of Binding to ETA Receptors
TE 671 cells (ATCC Accession No. HTB 139) express ETA receptors. These cells were grown to confluence in T-175 flasks. Cells from multiple flasks were collected by scraping, pooled and centrifuged for 10 min at 190×g. The cells were resuspended in phosphate buffered saline (PBS) containing 10 mM EDTA using a Tenbroeck homogenizer. The suspension was centrifuged at 4° C. at 57,800×g for 15 min, the pellet was resuspended in 5 ml of buffer A (5 mM HEPES buffer, pH 7.4 containing aprotinin (100 KIU/ml)) and then frozen and thawed once. 5 ml of Buffer B (5 mM HEPES Buffer, pH 7.4 containing 10 mM MnCl2 and 0.001% deoxyribonuclease Type 1) was added, the suspension mixed by inversion and then incubated at 37° C. for 30 minutes. The mixture was centrifuged at 57,800×g as described above, the pellet washed twice with buffer A and then resuspended in buffer C (30 mM HEPES buffer, pH 7.4 containing aprotinin (100 KIU/ml) to give a final protein concentration of 2 mg/ml and stored at −70° C. until use.
The membrane suspension was diluted with binding buffer (30 mM HEPES buffer, pH 7.4 containing 150 mM NaCl, 5mM MgCl2, 0.5% Bacitracin) to a concentration of 8 μg/50 μl. ^125I-endothelin-1 (3,000 cpm, […]) was added to 50 μL of either: (A) endothelin-1 (for non specific binding) to give a final concentration 80 nM); (B) binding buffer (for total binding); or (C) a test compound (final concentration 1 nM to 100 μM). The membrane suspension (50 μL), containing up to 8 μg of membrane protein, was added to each of (A), (B), or (C). Mixtures were shaken, and incubated at 4° C. for 16-18 hours, and then centrifuged at […] for 25 min at 2,500×g. Alternatively, the incubation was conducted at 24° C. […] This, must be kept in mind when comparing IC50 concentrations among compounds provided herein.
The supernatant, containing unbound radioactivity, was decanted and the pellet counted on a Genesys multiwell gamma counter. The degree of inhibition of binding (D) was calculated according to the following equation: [formula]
Each test was generally performed in triplicate.

[1] = Table 2, † incubation at 24° C.
[2] = Table 1, † incubation at 24° C.

## Cc1noc(NS(=O)(=O)c2cc(Br)c(Br)s2)c1Br [N-(4-Bromo-3-methyl-5-isoxazolyl)-4,5-dibromothiophene-2-sulfonamide]
Human ETB receptor; Table 1, incubation at 4° C.
  IC50: 2580 nM
Human ETA receptors; Table 1, incubation at 4° C.
  IC50: 281 nM

## Cc1noc(NS(=O)(=O)c2cc(Cl)c(Cl)s2)c1Br [N-(4-Bromo-3-methyl-5-isoxazolyl)-4,5-dichlorothiophene-2-sulfonamide]
Human ETB receptor; Table 1, incubation at 4° C.
  IC50: ~4900 nM
Human ETA receptors; Table 1, incubation at 4° C.
  IC50: ~450 nM

## Cc1noc(NS(=O)(=O)c2c(Cl)sc(Cl)c2Br)c1Br [N-(4-Bromo-3-methyl-5-isoxazolyl)-4-bromo-2,5-dichlorothiophene-3-sulfonamide]
Human ETB receptor; Table 1, incubation at 4° C.
  IC50: 10400 nM
Human ETA receptors; Table 1, incubation at 4° C.
  IC50: ~280 nM

## Cc1noc(NS(=O)(=O)c2ccc(-c3ccccn3)s2)c1Br [N-(4-Bromo-3-methyl-5-isoxazolyl)-5-(2-pyridyl)thiophene-2-sulfonamide]
Human ETB receptor; Table 1, incubation at 4° C.
  IC50: 2700 nM
Human ETA receptors; Table 1, incubation at 4° C.
  IC50: 3840 nM

## Cc1noc(NS(=O)(=O)c2ccc(CNC(=O)c3ccc(Cl)cc3)s2)c1Br [N-(4-Bromo-3-methyl-5-isoxazolyl)-5-(4-chlorobenzamidomethyl)thiophene-2-sulfonamide]
Human ETB receptor; Table 1, incubation at 4° C.
  IC50: 2570 nM
Human ETA receptors; Table 1, incubation at 4° C.
  IC50: 311 nM

## Cc1noc(NS(=O)(=O)c2ccc(S(=O)(=O)c3ccccc3)s2)c1Br [N-(4-Bromo-3-methyl-5-isoxazolyl)-5-benzenesulfonylthiophene-2-sulfonamide]
Human ETB receptor; Table 1, incubation at 4° C.
  IC50: 333 nM
Human ETA receptors; Table 1, incubation at 4° C.
  IC50: 570 nM

## Cc1noc(NS(=O)(=O)c2sc3ccc(Cl)cc3c2C)c1Br [N-(4-Bromo-3-methyl-5-isoxazolyl)-5-chloro-3-methylbenzo[b]thiophene-2-sulfonamide]
Human ETB receptor; Table 1, incubation at 4° C.
  IC50: 1630 nM
Human ETA receptors; Table 1, incubation at 4° C.
  IC50: 960 nM

## Cc1noc(NS(=O)(=O)c2ccc(-c3cc(C(F)(F)F)n(C)n3)s2)c1Br [N-(4-Bromo-3-methyl-5-isoxazolyl)-5-{3-[1-methyl-5-(trifluoromethyl)pyrazolyl]}thiophene-2-sulfonamide]
Human ETB receptor; Table 1, incubation at 4° C.
  IC50: ~360 nM
Human ETA receptors; Table 1, incubation at 4° C.
  IC50: ~6700 nM

## Cc1c(C(F)(F)F)noc1NS(=O)(=O)c1ccc(-c2ccccc2)cc1 [N-(4-Methyl-3-trifluoromethyl-5-isoxazolyl)-4-biphenylsulfonamide]
Human ETB receptor; Table 2, incubation at 4° C.
  IC50: 1700 nM
Human ETB receptor; [1]
  IC50: 5620 nM
Human ETA receptors; Table 2, incubation at 4° C.
  IC50: 19000 nM

## CCCCCCCCCCCCCc1c(C(F)(F)F)noc1NS(=O)(=O)c1ccc(-c2ccccc2)cc1 [N-(4-Tridecyl-3-trifluoromethyl-5-isoxazolyl)-4-biphenylsulfonamide]
Human ETB receptor; Table 2, incubation at 4° C.
  IC50: 990 ± 200 nM
Human ETB receptor; [1]
  IC50: 950 nM
Human ETA receptors; Table 2, incubation at 4° C.
  IC50: 34000 ± 9000 nM
Human ETA receptors; [1]
  IC50: 33000 nM

## Cc1noc(NS(=O)(=O)c2cccs2)c1Br [N-(4-bromo-3-methyl-5-isoxazolyl)2-thiophenesulfonamide]
Human ETB receptor; Table 1, incubation at 4° C.
  IC50: 27700 ± 15000 nM
Human ETA receptors; Table 1, incubation at 4° C.
  IC50: 95 ± 70 nM

## Cc1noc(NS(=O)(=O)c2cc3ccccc3n2C)c1Br [N-(4-bromo-3-methyl-5-isoxazolyl)-1-methylindole-2-sulfonamide]
Human ETB receptor; [2]
  IC50: ~100000 nM
Human ETA receptors; [2]
  IC50: 77000 nM

## Cc1noc(NS(=O)(=O)c2c(C)sc(C)c2-c2ccccc2)c1Br [N-(4-bromo-3-methyl-5-isoxazolyl)-2,5-dimethyl-4-phenylthiophene-3-sulfonamide]
Human ETB receptor; Table 1, incubation at 4° C.
  IC50: ~100000 nM
Human ETA receptors; Table 1, incubation at 4° C.
  IC50: 1400 nM

## Cc1cc(S(=O)(=O)Nc2onc(C)c2Br)c(C)o1 [N-(4-bromo-3-methyl-5-isoxazolyl)-2,5-dimethylfuran-3-sulfonamide]
Human ETB receptor; Table 1, incubation at 4° C.
  IC50: 36500 nM
Human ETA receptors; Table 1, incubation at 4° C.
  IC50: 460 nM

## Cc1ccc(C=CCc2sccc2S(=O)(=O)Nc2onc(C)c2Br)c(C)c1 [N-(4-bromo-3-methyl-5-isoxazolyl)-2-(2,4-dimethylcinnamyl)thiophene-3-sulfonamide]
Human ETB receptor; [2]
  IC50: 2970 nM
Human ETA receptors; [2]
  IC50: 166 nM

## CCCCc1ccc(NC(=O)c2sccc2S(=O)(=O)Nc2onc(C)c2Br)cc1 [N-(4-bromo-3-methyl-5-isoxazolyl)-2-(4-butylphenyl)aminocarbonylthiophene-3-sulfonamide]
Human ETB receptor; Table 1, incubation at 4° C.
  IC50: 2840 nM
Human ETA receptors; Table 1, incubation at 4° C.
  IC50: 44 nM

## Cc1noc(NS(=O)(=O)c2ccsc2C(=O)Nc2ccc(C(C)(C)C)cc2)c1Br [N-(4-bromo-3-methyl-5-isoxazolyl)-2-(4-t-butylphenyl)aminocarbonylthiophene-3-sulfonamide]
Human ETB receptor; Table 1, incubation at 4° C.
  IC50: 2820 nM
Human ETA receptors; Table 1, incubation at 4° C.
  IC50: 11 nM

## Cc1noc(NS(=O)(=O)c2ccsc2C(=O)Nc2ccccc2)c1Br [N-(4-bromo-3-methyl-5-isoxazolyl)-2-(N-phenylaminocarbonyl)thiophene-3-sulfonamide]
Human ETB receptor; Table 1, incubation at 4° C.
  IC50: 18800 nM
Human ETA receptors; Table 1, incubation at 4° C.
  IC50: 5.4 nM

## COC(=O)c1sccc1S(=O)(=O)Nc1onc(C)c1Br [N-(4-bromo-3-methyl-5-isoxazolyl)-2-(carbomethoxy)thiophene-3-sulfonamide]
Human ETB receptor; Table 1, incubation at 4° C.
  IC50: 98100 nM
Human ETA receptors; Table 1, incubation at 4° C.
  IC50: 20.8 nM

## Cc1cc2c(cc1C=CCc1sccc1S(=O)(=O)Nc1onc(C)c1Br)OCO2 [N-(4-bromo-3-methyl-5-isoxazolyl)-2-[2-methyl-4,5-(methylenedioxy)cinnamyl]thiophene-3-sulfonamide]
Human ETB receptor; [2]
  IC50: 3280 nM
Human ETA receptors; [2]
  IC50: 80.4 nM

## Cc1cc2c(cc1CCc1sccc1S(=O)(=O)Nc1onc(C)c1Br)OCO2 [N-(4-bromo-3-methyl-5-isoxazolyl)-2-[2-methyl-4,5-(methylenedioxy)phenethyl]thiophene-3-sulfonamide]
Human ETB receptor; [2]
  IC50: 8900 nM
Human ETA receptors; [2]
  IC50: 61.9 nM

## Cc1noc(NS(=O)(=O)c2ccsc2C(=O)NC(=O)c2ccc3c(c2)OCO3)c1Br [N-(4-bromo-3-methyl-5-isoxazolyl)-2-[(3,4-methylenedioxy)benzoyl]aminocarbonyl]thiophene-3-sulfonamide]
Human ETB receptor; [2]
  IC50: 37000 nM
Human ETA receptors; [2]
  IC50: 89 nM
